Source: ChEMBL document CHEMBL1201862, “PubChem BioAssay data set” (2004)
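Dose response: 5 concentrations. Exposure: 48 h. Format: 96-well plates. Endpoint: linear interpolation; highest concentration if not reached. GI50 is the concentration that inhibits growth by half.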 Activity calls are given as the source filed them. No stated cut-off is given here; in the data, active = GI50 up to about 1.1 µM and inactive = higher.

How the values were obtained:
Experiment in all cases: DTP human tumour cell line panel, 48 h
DLD-1 = tested on: DLD-1
DMS-114 = tested on: DMS-114
DMS-273 = tested on: DMS-273
HOP-18 = tested on: HOP-18
KM-20L2 = tested on: KM-20L2
LXFL 529 = tested on: LXFL 529
M19-MEL = tested on: M19-MEL
RXF 631 = tested on: RXF 631
XF498 = tested on: XF498

Compound	GI50 (DLD-1)	GI50 (DMS-114)	GI50 (DMS-273)	GI50 (HOP-18)	GI50 (KM-20L2)	GI50 (LXFL 529)	GI50 (M19-MEL)	GI50 (RXF 631)	GI50 (XF498)
CCCCCCCSCC1C(=O)C23C(O)C1CCC2C12COC3(O)C(O)C1C(C)(C)CCC2O (centres undefined)	14.4 µM (inactive)	8.38 µM (inactive)	12.6 µM (inactive)	12.5 µM (inactive)	12 µM (inactive)	2.37 µM (inactive)	15.3 µM (inactive)	5.04 µM (inactive)	18.5 µM (inactive)
COC(=O)C12C34C=CC5(CCC6(C=CC1(CC3)O6)C52C(=O)OC)O4 (centres undefined)	–	–	> 100 µM (inactive)	> 100 µM (inactive)	> 100 µM (inactive)	> 100 µM (inactive)	> 100 µM (inactive)	> 100 µM (inactive)	46.8 µM (inactive)
C/C(=N/NC(=O)C(N)=O)C(CC(C(=O)Nc1ccccc1C)/C(C)=N\NC(=O)C(N)=O)C(=O)Nc1ccccc1C (centres undefined)	> 100 µM (inactive)	–	–	–	> 100 µM (inactive)	> 100 µM (inactive)	> 100 µM (inactive)	–	–
CCCC/C=C1\CCC(C)(CN(C)C)C1=O (centres undefined)	> 10 µM (inactive)	> 100 µM (inactive)	–	> 100 µM (inactive)	> 100 µM (inactive)	> 100 µM (inactive)	15.6 µM (inactive)	–	–
CCOc1ccc(NC(=O)CCc2nnc(SC)o2)cc1	> 100 µM (inactive)	> 100 µM (inactive)	> 100 µM (inactive)	> 100 µM (inactive)	> 100 µM (inactive)	> 100 µM (inactive)	> 100 µM (inactive)	–	–
C=CCCCCCCCCCCCC1CCC(CC)N1 (centres undefined)	3.72 µM (inactive)	5 µM (inactive)	2.33 µM (inactive)	12.6 µM (inactive)	4.04 µM (inactive)	12.7 µM (inactive)	5.15 µM (inactive)	6.19 µM (inactive)	–
Cc1c(C)c2cc3c(=O)ccoc3c(C)c2oc1=O	–	48.3 µM (inactive)	–	41.6 µM (inactive)	> 100 µM (inactive)	80.4 µM (inactive)	70.6 µM (inactive)	83 µM (inactive)	–
CCCCCCCCCCCCCCCCOC(=O)c1cc(O)cc(C(=O)OCCCCCCCCCCCCCCCC)c1	–	> 100 µM (inactive)	> 100 µM (inactive)	> 100 µM (inactive)	> 100 µM (inactive)	> 100 µM (inactive)	> 100 µM (inactive)	> 100 µM (inactive)	–
Cc1cc(C)c(C(=O)/C(=C/c2ccccc2)c2ccccc2)c(C)c1	> 100 µM (inactive)	35.6 µM (inactive)	–	> 100 µM (inactive)	42.2 µM (inactive)	34.8 µM (inactive)	39.9 µM (inactive)	29.9 µM (inactive)	19.2 µM (inactive)
Cc1c(/N=C\c2ccc(N(CCC#N)CCC#N)cc2)c(=O)n(-c2ccccc2)n1C	> 100 µM (inactive)	> 100 µM (inactive)	> 88.5 µM (inactive)	25.2 µM (inactive)	> 100 µM (inactive)	> 100 µM (inactive)	> 100 µM (inactive)	–	28 µM (inactive)
Cc1cc(/C=C/c2cc[n+](C)c3ccccc23)c(O)c2ncccc12	3.32 µM (inactive)	0.214 µM (active)	0.558 µM (active)	1.36 µM (inactive)	5.68 µM (inactive)	0.156 µM (active)	1.42 µM (inactive)	–	–
CCSC1=CC(Cc2ccc(OC)cc2)N(C(=O)OC)C1 (centres undefined)	81.8 µM (inactive)	23.4 µM (inactive)	70 µM (inactive)	> 100 µM (inactive)	> 100 µM (inactive)	91.4 µM (inactive)	> 100 µM (inactive)	> 100 µM (inactive)	> 100 µM (inactive)
Cc1nc(C)c(C(=O)Nc2cccc3c2C(=O)NC3=O)cc1C(=O)Nc1cccc2c1C(=O)NC2=O	> 100 µM (inactive)	> 100 µM (inactive)	> 100 µM (inactive)	> 100 µM (inactive)	> 100 µM (inactive)	> 100 µM (inactive)	> 100 µM (inactive)	–	> 100 µM (inactive)
COC(=O)N/N=C(\C)c1c(O)cc(C)oc1=O	30.1 µM (inactive)	–	–	–	22.1 µM (inactive)	10.8 µM (inactive)	–	> 100 µM (inactive)	–
O=C1C2C3C=C4c5ccccc5N(c5ccccc5)C4(C2C(=O)N1c1ccc(Br)cc1)[C@H]1C(=O)N(c2ccc(Br)cc2)C(=O)[C@@H]31 (some centres undefined)	> 100 µM (inactive)	–	> 100 µM (inactive)	> 100 µM (inactive)	> 100 µM (inactive)	83.8 µM (inactive)	–	–	> 100 µM (inactive)
COC(=O)[C@@]12OC[C@]34C([C@@H](O)C1O)[C@@]1(C)CC(=O)C(OC(=O)/C=C(/c5ccccc5)C(F)(F)F)=C(C)C1C[C@H]3OC(=O)[C@H](O)[C@H]42 (some centres undefined)	7.41 µM (inactive)	4.27 µM (inactive)	3.44 µM (inactive)	30.1 µM (inactive)	8.61 µM (inactive)	7.35 µM (inactive)	5.08 µM (inactive)	–	9.82 µM (inactive)
CC(C)S(=O)(=O)ON1C(=O)c2ccc([N+](=O)[O-])cc2C1=O	> 100 µM (inactive)	> 100 µM (inactive)	> 100 µM (inactive)	> 100 µM (inactive)	–	> 100 µM (inactive)	> 100 µM (inactive)	> 100 µM (inactive)	> 100 µM (inactive)
COc1cc2c(cc1OC)C(OC)N(C)c1c-2ccc2cc3c(cc12)OCO3 (centres undefined)	9.68 µM (inactive)	1.17 µM (inactive)	1.11 µM (active)	21.6 µM (inactive)	0.558 µM (active)	–	1.19 µM (inactive)	–	0.895 µM (active)
C=C(C)[C@H]1Cc2c(ccc3c2O[C@@H]2COc4cc(OC)c(OC)cc4[C@@H]2C3=O)O1 [ROTENONE]	0.241 µM (active)	< 0.01 µM (active)	0.0378 µM (active)	–	0.128 µM (active)	0.0368 µM (active)	0.0559 µM (active)	–	0.055 µM (active)
